# Measurements: article PMC9662648 (Journal of the American Chemical Society, 2022)
# “And” between values parts separate entries of the source, which are not always exact repeats. Equal entries are not always repeated. Where two headings read alike, the source gives them in different places. Square brackets hold non-standard residues; d marks the D form. Peptide text beside a SMILES is read from it. * marks the point of attachment. Cit = NC(=O)NCCC[C@H](N)C(=O)O; CH2Cl = ClC*
# Tests used:
# M^Pro = M^Pro (Severe acute respiratory syndrome coronavirus 2, UniProt P0DTD1); format: biochemical; details: for Ki: read-out: M^Pro Ki(app), apparent; for M^Pro kinact/KI: second-order rate constant for enzyme inactivation; for fold less potent M^Pro inhibitor than alkyne parent: probes lacking the alkyne versus their parents
# Cytotoxicity = format: cell-based
# [1] = Pharmacokinetics in BALB-6c mice; details: for adverse events or signs of toxicity: at the tested doses
# Cathepsin B = Cathepsin B (Homo sapiens, UniProt P07858); experiment: Cathepsin B inhibition; format: biochemical; details: read-out: Cathepsin B IC50
# SARS-CoV2 [2] = format: cell-based; details: Huh7.5 cells, 2 μM, 24 h, MOI 0.05
# SARS-CoV2 [3] = format: cell-based; details: for EC50: read-out: EC50 for the inhibition of SARS-CoV-2 infection
# SARS-CoV2 [4] = format: in vivo, K18-hACE2 transgenic mice; details: for SARS-CoV2-induced weight loss and lethality: intranasal, 10 mg/kg once daily for 3 days starting 2 h prior to infection; for lung histopathology: intraperitoneal treatment for 5 days; for SARS-CoV-2-induced weight loss and lethality: intraperitoneal, 25 mg/kg twice daily for 5 days, post-infection; for viral RNA loads and titers in lung tissue: versus vehicle control, 72 h treatment
# SARS-CoV2 pseudovirus = format: cell-based
# [5] = Weight loss in mock infected mice; details: mouse, in vivo
# OC-43 = experiment: Inhibition of OC-43 in A549-hACE2 cells; format: cell-based; details: to a lesser extent than SARS-CoV2
# PL^Pro = PL^Pro (Severe acute respiratory syndrome coronavirus 2, UniProt P0DTD1); details: read-out: PL^Pro IC50
# Cathepsin L = Cathepsin L (Homo sapiens, UniProt P07711); experiment: Cathepsin L inhibition; format: biochemical; details: for IC50: read-out: Cathepsin L IC50
# Sequence of Cathepsin L (P07711 114-333): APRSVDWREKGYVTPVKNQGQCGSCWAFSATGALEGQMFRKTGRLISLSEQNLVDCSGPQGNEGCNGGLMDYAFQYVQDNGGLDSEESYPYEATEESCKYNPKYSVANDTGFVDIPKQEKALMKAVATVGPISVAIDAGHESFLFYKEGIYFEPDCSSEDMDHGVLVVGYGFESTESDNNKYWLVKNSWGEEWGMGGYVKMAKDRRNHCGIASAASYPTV
# SARS-CoV-2 = format: cell-based; details: relative to the DMSO control
# CatL = CatL (Homo sapiens, UniProt P07711); details: SM144 5 μM, 24 h, live A549-hACE2 cells
# Sequence of CatL (P07711 114-333): as above
smiles,measurement,setting,value
CCOC(=O)C=CC(CC1CCNC1=O)NC(=O)C(Cc1ccc(F)cc1)NC(=O)C(N)Cc1ccccc1 (stereo not drawn) [SM137],Ki,M^Pro,50 ± 6 µM
same,M^Pro kinact/KI,M^Pro,(1.8 ± 0.2)×10^3 M^−1min^−1
CCOC(=O)C=CC(CC1CCNC1=O)NC(=O)C(Cc1ccccc1)NC(=O)C(N)Cc1ccccc1 (stereo not drawn) [SM141],concentration up to which no notable cytotoxicity is caused,Cytotoxicity,50 µM
same,% Bioavailability,[1]; IP,35.2%
same,AUCINF_obs,[1]; IP,49620 ng·min/mL
same,AUClast,[1]; IP,1.6 µM·h
same,Cmax,[1]; IP,2700 nM
same,T1/2,[1]; IP,0.8 h
same,Tmax,[1]; IP,8.4 min
same,AUCINF_obs,[1]; IV,42350 ng·min/mL
same,AUClast,[1]; IV,1.3 µM·h
same,CI_Obs,[1]; IV,71.5 mL/min/kg
same,Cmax,[1]; IV,3900 nM
same,MRTINF_obs,[1]; IV,0.4 h
same,T1/2,[1]; IV,0.8 h
same,Tmax,[1]; IV,4.8 min
same,VSS_obs,[1]; IV,1.6 L/kg
same,% Bioavailability,[1]; PO,5%
same,AUCINF_obs,[1]; PO,7325 ng·min/mL
same,AUClast,[1]; PO,0.14 µM·h
same,Cmax,[1]; PO,200 nM
same,Tmax,[1]; PO,48 min
same,adverse events or signs of toxicity,[1],no adverse events or signs of toxicity were observed
same,IC50,Cathepsin B,> 50 µM
same,Ki,M^Pro,9 ± 1 µM
same,M^Pro kinact/KI,M^Pro,(2.0 ± 0.2)×10^4 M^−1min^−1
same,antiviral activity,SARS-CoV2 [2],almost completely blocks viral infection
same,fold by which the antiviral EC50 is lower than potency for M^Pro inhibition,SARS-CoV2 [3],more than 100 fold
same,antiviral activity,"SARS-CoV2 [3]; A549-hACE2 cells, 2 μM, 24 h, MOI 0.05",almost completely blocks viral infection
same,EC50,SARS-CoV2 [3]; A549-hACE2 cells,8.2 nM
same,EC90,"SARS-CoV2 [3]; read-out: EC90 for the inhibition of SARS-CoV-2 infection, A549-hACE2 cells",22.1 nM
same,SARS-CoV2-induced weight loss and lethality,SARS-CoV2 [4],protects mice from SARS-CoV2-induced weight loss and lethality
same,lung histopathology,SARS-CoV2 [4],significant reduction in lung inflammation and improved overall lung pathology
same,SARS-CoV-2-induced weight loss and lethality,SARS-CoV2 [4],protects K18-ACE2 mice from SARS-CoV-2-induced weight loss and lethality
same,viral RNA loads and titers in lung tissue,SARS-CoV2 [4],remarkably lower
same,additional inhibition of pseudovirus entry in CatL knockdown cells,SARS-CoV2 pseudovirus,did not show any significant additional inhibitory activity
same,weight loss in mock infected mice,[5],no significant weight loss
same,inhibition of OC-43,OC-43,inhibits OC-43
same,IC50,PL^Pro,> 50 µM
same,Cathepsin L kinact/KI,Cathepsin L,(1.9 ± 0.5)×10^5 M^−1min^−1
same,fold more potent for CatL inhibition than M^Pro,Cathepsin L; from IC50 and kinact/KI values,10 fold
same,IC50,Cathepsin L,60 ± 1 nM
same,inhibition of live virus infection in CatL knockdown cells,SARS-CoV-2,do inhibit live virus infection
CCOC(=O)C=CC(CC1CCNC1=O)NC(=O)C(Cc1ccccc1)NC(=O)C(Cc1ccccc1)NC(=O)OC(C)(C)C (stereo not drawn) [SM140],IC50,Cathepsin B,> 50 µM
same,Ki,M^Pro,16 ± 2 µM
same,M^Pro kinact/KI,M^Pro,(9.0 ± 0.2)×10^3 M^−1min^−1
same,IC50,PL^Pro,> 50 µM
CCOC(=O)C=CC(CC1CCNC1=O)NC(=O)C(Cc1ccccc1)NC(=O)C(Cc1ccc(F)cc1)NC(=O)OC(C)(C)C (stereo not drawn) [SM142],AUCINF_obs,[1]; IV,18490 ng·min/mL
same,AUClast,[1]; IV,0.4 µM·h
same,CI_Obs,[1]; IV,169 mL/min/kg
same,Cmax,[1]; IV,400 nM
same,MRTINF_obs,[1]; IV,1.9 h
same,T1/2,[1]; IV,2.1 h
same,Tmax,[1]; IV,4.8 min
same,VSS_obs,[1]; IV,13.2 L/kg
same,% Bioavailability,[1]; PO,38% and 37.5%
same,AUCINF_obs,[1]; PO,20843 ng·min/mL
same,AUClast,[1]; PO,0.5 µM·h
same,Cmax,[1]; PO,600 nM
same,T1/2,[1]; PO,2.1 h
same,Tmax,[1]; PO,4.8 min
same,adverse events or signs of toxicity,[1],no adverse events or signs of toxicity were observed
same,volume of distribution,[1]; calculated,13 L/kg
same,IC50,Cathepsin B,40 ± 9 µM
same,Ki,M^Pro,10 ± 1 µM
same,M^Pro kinact/KI,M^Pro,(1.1 ± 0.3)×10^4 M^−1min^−1
same,fold by which the antiviral EC50 is lower than potency for M^Pro inhibition,SARS-CoV2 [3],more than 100 fold
same,EC50,SARS-CoV2 [3]; A549-hACE2 cells,14.7 nM
same,SARS-CoV2-induced weight loss and lethality,SARS-CoV2 [4],protects mice from SARS-CoV2-induced weight loss and lethality
same,lung histopathology,SARS-CoV2 [4],significant reduction in lung inflammation and improved overall lung pathology
same,SARS-CoV-2-induced weight loss and lethality,SARS-CoV2 [4],protects K18-ACE2 mice from SARS-CoV-2-induced weight loss and lethality
same,viral RNA loads and titers in lung tissue,SARS-CoV2 [4],remarkably lower
same,additional inhibition of pseudovirus entry in CatL knockdown cells,SARS-CoV2 pseudovirus,did not show any significant additional inhibitory activity
same,weight loss in mock infected mice,[5],no significant weight loss
same,inhibition of OC-43,OC-43,inhibits OC-43
same,IC50,PL^Pro,> 50 µM
same,Cathepsin L kinact/KI,Cathepsin L,(1.1 ± 0.01)×10^5 M^−1min^−1
same,IC50,Cathepsin L,145 ± 14 nM
same,inhibition of live virus infection in CatL knockdown cells,SARS-CoV-2,do inhibit live virus infection
C#CCOCCC(=O)NC(Cc1ccccc1)C(=O)NC(Cc1ccccc1)C(=O)NC(C=CC(=O)OCC)CC1CCNC1=O (stereo not drawn) [SM145],IC50,Cathepsin B,> 50 µM
same,Ki,M^Pro,5.3 ± 0.4 µM
same,antiviral activity compared with SM141 and SM142,SARS-CoV2 [3],significantly lower antiviral activity
same,IC50,PL^Pro,> 50 µM
same,Cathepsin L kinact/KI,Cathepsin L,(2.5 ± 0.01)×10^4 M^−1min^−1
same,IC50,Cathepsin L,200 ± 4 nM
C#CCOCCC(=O)NC(Cc1ccc(F)cc1)C(=O)NC(Cc1ccccc1)C(=O)NC(C=CC(=O)OCC)CC1CCNC1=O (stereo not drawn) [SM144],IC50,Cathepsin B,> 50 µM
same,Ki,M^Pro,4.5 ± 0.5 µM
same,M^Pro kinact/KI,M^Pro,(3.4 ± 0.1)×10^4 M^−1min^−1
same,antiviral activity compared with SM141 and SM142,SARS-CoV2 [3],significantly lower antiviral activity
same,IC50,PL^Pro,> 50 µM
same,Cathepsin L kinact/KI,Cathepsin L,(6 ± 0.2)×10^4 M^−1min^−1
same,IC50,Cathepsin L,220 ± 26 nM
same,enrichment of CatL,CatL,> 128 fold
N=C(N)NCCC[C@H](NC(=O)[C@H](Cc1ccccc1)NC(=O)[C@H](N)Cc1ccccc1)C(=O)CCl [D-FFR-CMK] (H-[dF]-Phe-Arg-CH2Cl),fold less potent M^Pro inhibitor than alkyne parent,M^Pro,4–5 fold
same,IC50,PL^Pro,5 ± 0.3 µM
CCOC(=O)C=CC(CC1CCNC1=O)NC(=O)C(Cc1ccc(F)cc1)NC(=O)C(Cc1ccccc1)NC(=O)OC(C)(C)C (stereo not drawn) [SM136],Ki,M^Pro,73 ± 4 µM
same,M^Pro kinact/KI,M^Pro,(7.7 ± 0.3)×10^2 M^−1min^−1
NC(=O)NCCC[C@H](NC(=O)[C@H](Cc1ccccc1)NC(=O)[C@H](N)Cc1ccccc1)C(=O)CCl [D-FFCit-CMK] (H-[dF]-Phe-[Cit]-CH2Cl),fold less potent M^Pro inhibitor than alkyne parent,M^Pro,4–5 fold
same,IC50,PL^Pro,> 50 µM
